From patent publication US8148391B2 (Cephalon, Inc., priority 2006, dated 2012)

How the values were obtained:
[1] = target: T1, c-Met (cytoplasmic domain) (Homo sapiens, UniProt P08581); assay: c-Met Kinase Assay (same methods as for ALK, with modifications); assay type: biochemical; settings: c-Met kinase inhibition, 1 μM ATP; read-out: cMet Activity
T1 construct: 10 ng/mL c-Met (cytoplasmic domain, Invitrogen Corporation #PV3143); purchased Invitrogen Corporation PV3143
Outline: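 Plates were coated with phospholipase C-γ substrate (10 μg/mL) in TBS, and the reaction was started with 10 ng/mL c-Met cytoplasmic domain and run 15 min at 37 °C. Phosphoproduct was detected with Eu-N1-labelled PT66 antibody. IC50 came from a variable-slope sigmoidal fit of percent inhibition vs log concentration.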

[2] = target: T2, baculovirus-expressed ALK (Homo sapiens, UniProt Q9UM73); assay: ALK Kinase Assay (ELISA-type, time-resolved fluorescence); assay type: biochemical; settings: ALK kinase inhibition, 1 μM ATP; read-out: ALK Activity
T2 construct: host or cells: baculovirus expression system
T2 sequence (Q9UM73 19-1620): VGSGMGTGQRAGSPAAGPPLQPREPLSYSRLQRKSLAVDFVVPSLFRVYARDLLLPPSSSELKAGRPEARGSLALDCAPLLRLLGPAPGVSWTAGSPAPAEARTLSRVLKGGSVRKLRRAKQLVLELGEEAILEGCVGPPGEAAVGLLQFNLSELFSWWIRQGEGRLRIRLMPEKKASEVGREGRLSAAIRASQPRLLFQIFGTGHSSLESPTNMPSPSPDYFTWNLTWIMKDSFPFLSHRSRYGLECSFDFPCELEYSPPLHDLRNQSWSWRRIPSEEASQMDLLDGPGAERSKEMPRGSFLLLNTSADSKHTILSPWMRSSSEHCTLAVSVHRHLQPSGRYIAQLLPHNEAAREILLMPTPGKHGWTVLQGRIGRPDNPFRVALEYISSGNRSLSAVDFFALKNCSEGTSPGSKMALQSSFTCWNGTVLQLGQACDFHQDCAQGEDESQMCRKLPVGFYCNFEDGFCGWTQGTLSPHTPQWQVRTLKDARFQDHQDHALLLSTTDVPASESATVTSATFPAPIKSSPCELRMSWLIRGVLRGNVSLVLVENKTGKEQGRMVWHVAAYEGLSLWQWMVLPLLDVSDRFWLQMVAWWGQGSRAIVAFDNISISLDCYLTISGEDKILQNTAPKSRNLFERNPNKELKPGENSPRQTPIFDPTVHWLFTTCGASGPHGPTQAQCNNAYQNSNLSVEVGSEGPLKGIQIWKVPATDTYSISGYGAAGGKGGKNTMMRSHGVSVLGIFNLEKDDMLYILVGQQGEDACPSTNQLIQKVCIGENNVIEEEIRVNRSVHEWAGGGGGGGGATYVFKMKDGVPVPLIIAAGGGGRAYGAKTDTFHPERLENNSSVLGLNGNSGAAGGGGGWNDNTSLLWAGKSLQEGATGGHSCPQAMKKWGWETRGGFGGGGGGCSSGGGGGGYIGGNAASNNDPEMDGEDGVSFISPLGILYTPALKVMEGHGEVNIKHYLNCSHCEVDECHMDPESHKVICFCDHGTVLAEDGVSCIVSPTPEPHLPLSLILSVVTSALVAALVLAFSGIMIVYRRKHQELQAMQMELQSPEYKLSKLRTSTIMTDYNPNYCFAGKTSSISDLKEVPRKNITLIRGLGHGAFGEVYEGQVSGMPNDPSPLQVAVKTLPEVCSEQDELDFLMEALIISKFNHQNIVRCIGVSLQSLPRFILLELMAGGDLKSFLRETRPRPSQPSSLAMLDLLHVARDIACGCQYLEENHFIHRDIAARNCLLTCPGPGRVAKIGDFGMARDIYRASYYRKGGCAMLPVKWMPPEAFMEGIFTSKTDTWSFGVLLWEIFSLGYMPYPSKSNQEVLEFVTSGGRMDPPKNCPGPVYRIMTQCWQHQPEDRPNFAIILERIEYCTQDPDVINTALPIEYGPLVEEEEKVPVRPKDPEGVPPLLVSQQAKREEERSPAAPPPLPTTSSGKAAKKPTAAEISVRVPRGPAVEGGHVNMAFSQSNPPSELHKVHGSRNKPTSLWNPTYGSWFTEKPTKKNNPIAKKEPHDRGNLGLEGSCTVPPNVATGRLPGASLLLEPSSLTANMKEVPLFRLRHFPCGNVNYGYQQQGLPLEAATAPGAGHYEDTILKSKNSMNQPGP
Outline: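 Plates coated with phospholipase C-γ substrate (10 μg/mL in TBS); reaction started with 30 ng/ml ALK and run 15 min at 37° C. Phosphorylated substrate detected with Eu-N1-labeled PT66 antibody. IC50 from sigmoidal variable-slope fit of percent inhibition vs log concentration.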

T1 sequence (P08581 956-1390 limits assumed): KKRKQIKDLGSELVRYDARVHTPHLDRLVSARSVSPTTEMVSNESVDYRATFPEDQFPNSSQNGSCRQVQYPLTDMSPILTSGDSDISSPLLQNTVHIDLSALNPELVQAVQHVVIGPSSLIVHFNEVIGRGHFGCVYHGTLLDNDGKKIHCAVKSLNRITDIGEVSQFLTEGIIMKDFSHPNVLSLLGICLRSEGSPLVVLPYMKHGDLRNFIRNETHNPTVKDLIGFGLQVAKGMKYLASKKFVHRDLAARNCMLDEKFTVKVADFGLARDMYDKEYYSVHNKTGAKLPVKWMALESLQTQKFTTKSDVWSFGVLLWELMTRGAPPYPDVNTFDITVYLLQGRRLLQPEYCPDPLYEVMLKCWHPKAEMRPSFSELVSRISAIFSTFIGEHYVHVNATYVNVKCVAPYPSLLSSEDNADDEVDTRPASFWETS

Row | SMILES | IC50 [1] [nM] | IC50 [2] [nM]
1 | CCNC(=O)c1cccc(F)c1Nc1nc(Nc2ccc3c(c2)N(CC)C(=O)CCC3(C)C)ncc1Cl [Example 1579, 2-[5-Chloro-2-(1-ethyl-5,5-dimethyl-2-oxo-2,3,4,5-tetrahydro-1H-benzo[b]azepin-8-ylamino)-pyrimidin-4-ylamino]-N-ethyl-3-fluoro-benzamide] | < 100 | < 100
2 | CCN1C(=O)CCC(C)(C)c2ccc(Nc3ncc(Cl)c(Nc4ccccc4OCC#N)n3)cc21 [Example 1580, {2-[5-Chloro-2-(1-ethyl-5,5-dimethyl-2-oxo-2,3,4,5-tetrahydro-1H-benzo[b]azepin-8-ylamino)-pyrimidin-4-ylamino]-phenoxy}-acetonitrile] | 100 to 1000 | < 100
3 | COCCN1C(=O)CCC(C)(C)c2ccc(Nc3ncc(Cl)c(Nc4ccccc4OCC#N)n3)cc21 [Example 1582, (2-{5-Chloro-2-[1-(2-methoxy-ethyl)-5,5-dimethyl-2-oxo-2,3,4,5-tetrahydro-1H-benzo[b]azepin-8-ylamino]-pyrimidin-4-ylamino}-phenoxy)-acetonitrile] | 100 to 1000 | < 100
4 | COCCN1C(=O)CCC(C)(C)c2ccc(Nc3ncc(Cl)c(N[C@H]4[C@@H](C(N)=O)[C@@H]5C=C[C@H]4C5)n3)cc21 [Example 1583, (1S,2S,3R,4R)-3-{5-Chloro-2-[1-(2-methoxy-ethyl)-5,5-dimethyl-2-oxo-2,3,4,5-tetrahydro-1H-benzo[b]azepin-8-ylamino]-pyrimidin-4-ylamino}-bicyclo[2.2.1]hept-5-ene-2-carboxylic acid amide] | 100 to 1000 | < 100
5 | COCCN1C(=O)CCC(C)(C)c2ccc(Nc3ncc(Cl)c(Nc4ccc(N5CCOCC5)cc4OC)n3)cc21 [Example 1584, 8-[5-Chloro-4-(2-methoxy-4-morpholin-4-yl-phenylamino)-pyrimidin-2-ylamino]-1-(2-methoxy-ethyl)-5,5-dimethyl-1,3,4,5-tetrahydro-benzo[b]azepin-2-one] | 1000 to 10000 | < 100
6 | CNC(=O)c1ccccc1Nc1nc(Nc2ccc3c(c2)N(CCOC)C(=O)CCC3(C)C)ncc1Cl [Example 1585, 2-{5-Chloro-2-[1-(2-methoxy-ethyl)-5,5-dimethyl-2-oxo-2,3,4,5-tetrahydro-1H-benzo[b]azepin-8-ylamino]-pyrimidin-4-ylamino}-N-methyl-benzamide] | 100 to 1000 | < 100
7 | CCN1C(=O)CCC(C)(C)c2ccc(Nc3ncc(Cl)c(N[C@H]4[C@@H](C(N)=O)[C@@H]5C=C[C@H]4C5)n3)cc21 [Example 1586, (1S,2S,3R,4R)-3-[5-Chloro-2-(1-ethyl-5,5-dimethyl-2-oxo-2,3,4,5-tetrahydro-1H-benzo[b]azepin-8-ylamino)-pyrimidin-4-ylamino]-bicyclo[2.2.1]hept-5-ene-2-carboxylic acid amide] | < 100 | < 100
8 | CCN1C(=O)CCC(C)(C)c2ccc(Nc3ncc(Cl)c(Nc4ccc(N5CCOCC5)cc4OC)n3)cc21 [Example 1587, 8-[5-Chloro-4-(2-methoxy-4-morpholin-4-yl-phenylamino)-pyrimidin-2-ylamino]-1-ethyl-5,5-dimethyl-1,3,4,5-tetrahydro-benzo[b]azepin-2-one] | 1000 to 10000 | < 100
9 | CCN1C(=O)CCC(C)(C)c2ccc(Nc3ncc(Cl)c(Nc4ccccc4C(=O)NC)n3)cc21 [Example 1589, 2-[5-Chloro-2-(1-ethyl-5,5-dimethyl-2-oxo-2,3,4,5-tetrahydro-1H-benzo[b]azepin-8-ylamino)-pyrimidin-4-ylamino]-N-methyl-benzamide] | < 100 | < 100
10 | CC(C)N1C(=O)CCC(C)(C)c2ccc(Nc3ncc(Cl)c(N[C@H]4[C@@H](C(N)=O)[C@@H]5C=C[C@H]4C5)n3)cc21 [Example 1590, (1S,2S,3R,4R)-3-[5-Chloro-2-(1-isopropyl-5,5-dimethyl-2-oxo-2,3,4,5-tetrahydro-1H-benzo[b]azepin-8-ylamino)-pyrimidin-4-ylamino]-bicyclo[2.2.1]hept-5-ene-2-carboxylic acid amide] | 1000 to 10000 | < 100
11 | COc1cc(N2CCOCC2)ccc1Nc1nc(Nc2ccc3c(c2)N(C(C)C)C(=O)CCC3(C)C)ncc1Cl [Example 1591, 8-[5-Chloro-4-(2-methoxy-4-morpholin-4-yl-phenylamino)-pyrimidin-2-ylamino]-1-isopropyl-5,5-dimethyl-1,3,4,5-tetrahydro-benzo[b]azepin-2-one] | > 10000 | < 100
12 | CC(C)CN1C(=O)CCC(C)(C)c2ccc(Nc3ncc(Cl)c(N[C@H]4[C@@H](C(N)=O)[C@@H]5C=C[C@H]4C5)n3)cc21 [Example 1593, (1S,2S,3R,4R)-3-[5-Chloro-2-(1-isobutyl-5,5-dimethyl-2-oxo-2,3,4,5-tetrahydro-1H-benzo[b]azepin-8-ylamino)-pyrimidin-4-ylamino]-bicyclo[2.2.1]hept-5-ene-2-carboxylic acid amide] | 1000 to 10000 | < 100
13 | COc1cc(N2CCOCC2)ccc1Nc1nc(Nc2ccc3c(c2)N(CC(C)C)C(=O)CCC3(C)C)ncc1Cl [Example 1594, 8-[5-Chloro-4-(2-methoxy-4-morpholin-4-yl-phenylamino)-pyrimidin-2-ylamino]-1-isobutyl-5,5-dimethyl-1,3,4,5-tetrahydro-benzo[b]azepin-2-one] | > 10000 | < 100
14 | CCN1C(=O)CCC(C)(C)c2ccc(Nc3ncc(Cl)c(Nc4ccccc4S(=O)(=O)N(C)C)n3)cc21 [Example 1595, 2-[5-Chloro-2-(1-ethyl-5,5-dimethyl-2-oxo-2,3,4,5-tetrahydro-1H-benzo[b]azepin-8-ylamino)-pyrimidin-4-ylamino]-N,N-dimethyl-benzenesulfonamide] | < 100 | < 100
15 | CNC(=O)c1cccc(F)c1Nc1nc(Nc2ccc3c(c2)N(C(C)=O)CCCC3(C)C)ncc1Cl [Example 1596, 2-[2-(1-Acetyl-5,5-dimethyl-2,3,4,5-tetrahydro-1H-benzo[b]azepin-8-ylamino)-5-chloro-pyrimidin-4-ylamino]-3-fluoro-N-methyl-benzamide] | < 100 | 100 to 1000
16 | CCN1C(=O)CCC(C)(C)c2ccc(Nc3ncc(Cl)c(Nc4ccsc4C(=O)NC)n3)cc21 [Example 1597, 3-[5-Chloro-2-(1-ethyl-5,5-dimethyl-2-oxo-2,3,4,5-tetrahydro-1H-benzo[b]azepin-8-ylamino)-pyrimidin-4-ylamino]-thiophene-2-carboxylic acid methylamide] | 1000 to 10000 | 1000 to 10000
17 | COc1cc(N2CCOCC2)ccc1Nc1nc(Nc2ccc3c(c2)N(C(C)=O)CCCC3(C)C)ncc1Cl [Example 1598, 1-{8-[5-Chloro-4-(2-methoxy-4-morpholin-4-yl-phenylamino)-pyrimidin-2-ylamino]-5,5-dimethyl-2,3,4,5-tetrahydro-benzo[b]azepin-1-yl}-ethanone] | 1000 to 10000 | 100 to 1000
18 | CNC(=O)c1cccc(F)c1Nc1nc(Nc2ccc3c(c2)N(CCOC)CCCC3(C)C)ncc1Cl [Example 1599, 2-{5-Chloro-2-[1-(2-methoxy-ethyl)-5,5-dimethyl-2,3,4,5-tetrahydro-1H-benzo[b]azepin-8-ylamino]-pyrimidin-4-ylamino}-3-fluoro-N-methyl-benzamide] | < 100 | < 100
19 | COCCN1CCCC(C)(C)c2ccc(Nc3ncc(Cl)c(N[C@H]4[C@@H](C(N)=O)[C@@H]5C=C[C@H]4C5)n3)cc21 [Example 1600, (1S,2S,3R,4R)-3-{5-Chloro-2-[1-(2-methoxy-ethyl)-5,5-dimethyl-2,3,4,5-tetrahydro-1H-benzo[b]azepin-8-ylamino]-pyrimidin-4-ylamino}-bicyclo[2.2.1]hept-5-ene-2-carboxylic acid amide] | 100 to 1000 | < 100
20 | COCCN1CCCC(C)(C)c2ccc(Nc3ncc(Cl)c(Nc4ccc(N5CCOCC5)cc4OC)n3)cc21 [Example 1601, 5-Chloro-N*2*-[1-(2-methoxy-ethyl)-5,5-dimethyl-2,3,4,5-tetrahydro-1H-benzo[b]azepin-8-yl]-N*4*-(2-methoxy-4-morpholin-4-yl-phenyl)-pyrimidine-2,4-diamine] | > 10000 | 100 to 1000
21 | C#CCNC(=O)c1cccc(F)c1Nc1nc(Nc2ccc3c(c2)N(C(C)=O)CCCC3(C)C)ncc1Cl [Example 1602, 2-[2-(1-Acetyl-5,5-dimethyl-2,3,4,5-tetrahydro-1H-benzo[b]azepin-8-ylamino)-5-chloro-pyrimidin-4-ylamino]-3-fluoro-N-prop-2-ynyl-benzamide] | < 100 | 100 to 1000
22 | CNC(=O)c1cccc(F)c1Nc1nc(Nc2ccc3c(c2)N(C(=O)CN2CCCC2)CCCC3(C)C)ncc1Cl [Example 1603, 2-{5-Chloro-2-[5,5-dimethyl-1-(2-pyrrolidin-1-yl-acetyl)-2,3,4,5-tetrahydro-1H-benzo[b]azepin-8-ylamino]-pyrimidin-4-ylamino}-3-fluoro-N-methyl-benzamide] | 100 to 1000 | 100 to 1000
23 | C#CCNC(=O)c1cccc(F)c1Nc1nc(Nc2ccc3c(c2)N(C(=O)CN2CCCC2)CCCC3(C)C)ncc1Cl [Example 1604, 2-{5-Chloro-2-[5,5-dimethyl-1-(2-pyrrolidin-1-yl-acetyl)-2,3,4,5-tetrahydro-1H-benzo[b]azepin-8-ylamino]-pyrimidin-4-ylamino}-3-fluoro-N-prop-2-ynyl-benzamide] | 100 to 1000 | 100 to 1000
